The source made the active and inactive calls.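 How the source made its calls: active means at least one rat sex group has a carcinogenic potency value and tumor site recorded; inconclusive means only rat studies were judged inadequate by the national testing program; inactive means no potency or tumor site, with negative rat experiments.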 Where a SMILES comes first, the peptide text is derived from it.
Tested on: rat chronic carcinogenicity bioassay, TD50
Test: DSSTox (CPDBAS) Carcinogenic Potency Database Summary Rat Bioassay Results
Details: for Potency: stronger effect = lower value
In short: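 The activity score maps log10(1/TD50_Rat_mmol) linearly onto 1–100; actives without a computed TD50, such as mixtures, receive 50. Source data are chronic rat carcinogenicity tests, using the most positive experiment for each sex.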

[1] = TD50_Rat_Note: no positive results, TargetSites_Rat_Female: no positive results
[2] = TD50_Rat_Note: no positive results
[3] = TD50_Rat_Note: TD50 is harmonic mean of more than one positive test
[4] = TargetSites_Rat_Female: no positive results
[5] = TD50_Rat_Note: TD50 is harmonic mean of more than one positive test, TargetSites_Rat_Female: liver
[6] = TD50_Rat_Note: TD50 is harmonic mean of more than one positive test, TargetSites_Rat_Female: stomach

SMILES: Nc1ncn[nH]1
- Potency (TD50_Rat_Note: TD50 is harmonic mean of more than one positive test, TargetSites_Rat_Female: pituitary gland, thyroid gland): 9.94 mg/kg/day

SMILES: O=C1CCC(=O)O1
- outcome [1]: inactive; no positive results

SMILES: CC(C)=NNc1ncc(-c2ccc([N+](=O)[O-])o2)s1
- Potency (TargetSites_Rat_Female: stomach): 6.05 mg/kg/day

SMILES: Cc1cc(O)c2c(c1)C(=O)c1cc(O)cc(O)c1C2=O
- outcome [1]: inactive; no positive results

SMILES: Cc1cc(C)c(N)cc1C
- Potency (TD50_Rat_Note: TD50 is harmonic mean of more than one positive test, TargetSites_Rat_Female: liver, lung): 33.6 mg/kg/day
- Potency (TD50_Rat_Note: no positive results are statistically significant): 98.5 mg/kg/day

SMILES: CN(N=O)c1cccnc1
- outcome [1]: inactive

SMILES: [C-]1=CC=CC1.[C-]1=CC=CC1.[Cl-].[Cl-].[Ti+4]
- outcome [1]: inactive; no positive results

SMILES: Clc1ccc2c(c1)C(c1ccccc1)=NCc1nncn1-2
- outcome [1]: inactive; no positive results

SMILES: CCN(CC)C(=S)S
- outcome [1]: inactive; no positive results

SMILES: CCCN(CCC)S(=O)(=O)c1ccc(C(=O)O)cc1
- outcome [1]: inactive; no positive results

SMILES: COCCl
- Potency: 5.5 mg/kg/day

SMILES: CC(Oc1c(Cl)cccc1Cl)C1=NCCN1 (stereo not given)
- outcome [1]: inactive; no positive results

SMILES: CC1(C)C(=O)NC(=O)NC1=O
- outcome [2]: inactive; no positive results

SMILES: O=C1c2ccccc2C(=O)c2c(O)cccc21
- Potency [3]: 93.5 mg/kg/day

SMILES: CN1CCC[C@H]1c1cccnc1
- outcome [1]: inactive; no positive results

SMILES: O=[N+]([O-])c1ccc(NCCO)c(OCCO)c1
- outcome [1]: inactive; no positive results

SMILES: C[C@]12C=CC(=O)C=C1CC[C@@H]1[C@@H]2[C@@H](O)C[C@@]2(C)[C@H]1CC[C@]2(O)C(=O)CO
- Potency [4]: 1.53 mg/kg/day

SMILES: CN1[C@@H]2CC[C@H]1CC(OC(=O)C(CO)c1ccccc1)C2 (stereo not given in full)
- outcome [1]: inactive; no positive results

SMILES: CCn1cc(C(=O)O)c(=O)c2ccc(C)nc21
- Potency (TD50_Rat_Note: TD50 is harmonic mean of more than one positive test, TargetSites_Rat_Female: clitoral gland): 201 mg/kg/day

SMILES: CCCCN(N=O)C(N)=O
- Potency (TD50_Rat_Note: TD50 is harmonic mean of more than one positive test, greater than ten-fold variation among TD50 values for positive res, TargetSites_Rat_Female: esophagus, ear Zymbals gland, hematopoietic system, large intestine, lung, mammary gland, stomach, uterus, vagina): 0.517 mg/kg/day

SMILES: C/C=C/C=O
- Potency: 4.2 mg/kg/day

SMILES: CC[C@H](OC(C)=O)C(C[C@H](C)N(C)C)(c1ccccc1)c1ccccc1
- Potency [5]: 68 mg/kg/day

SMILES: S=C=NCCc1ccccc1
- outcome [2]: inactive; no positive results

SMILES: CC(=O)N[C@@H](CS)C(=O)O
- outcome [2]: inactive; no positive results

SMILES: CC(O)CN(CCO)N=O (stereo not given)
- Potency (TargetSites_Rat_Female: esophagus, liver, vascular system): 1.02 mg/kg/day

SMILES: COc1ccc(O)cc1
- Potency [6]: 658 mg/kg/day

SMILES: O=NN1CCCCCCC1
- Potency [3]: 0.0378 mg/kg/day

SMILES: O=C(O)CCC(=O)O
- outcome [1]: inactive; no positive results

SMILES: O=NN(CCCl)C(=O)N[C@@H]1[C@@H](O)[C@H](O)[C@@H](CO)O[C@@H]1O
- Potency (TD50_Rat_Note: positive test results only by intraperitoneal or intravenous injection, TD50 is harmonic mean of more than one positive, TargetSites_Rat_Female: peritoneal cavity): 0.0375 mg/kg/day

SMILES: C=Cc1cccc[n+]1[O-]
- outcome [1]: inactive

SMILES: O=C1C(O)N=C(c2ccccc2F)c2cc(Cl)ccc2N1CCO (stereo not given)
- outcome [1]: inactive; no positive results

SMILES: CCC(O)OC(O)CC (stereo not given)
- outcome [1]: inactive; no positive results

SMILES: CC(=O)Nc1ccc(N=Nc2cc(C)ccc2O)cc1
- Potency [4]: 380 mg/kg/day

SMILES: C1CCC(C(CC2CCCCN2)C2CCCCC2)CC1 (stereo not given)
- outcome [1]: inactive; no positive results

SMILES: BrC(Br)Br
- Potency (TD50_Rat_Note: TD50 is harmonic mean of more than one positive test, TargetSites_Rat_Female: large intestine): 648 mg/kg/day

SMILES: Cc1cc(Cc2cc(C)cc(C(C)(C)C)c2O)c(O)c(C(C)(C)C)c1
- outcome [1]: inactive; no positive results

SMILES: CC(O)CN(N=O)C(=O)NCCCl (stereo not given)
- Potency [5]: 0.873 mg/kg/day

SMILES: CCCCCCCCCCN(C)N=O
- Potency: 1.26 mg/kg/day

SMILES: OC[C@H]1O[C@@H]2O[C@H]3[C@H](O)[C@@H](O)[C@@H](O[C@H]4[C@H](O)[C@@H](O)[C@@H](O[C@H]5[C@H](O)[C@@H](O)[C@@H](O[C@H]6[C@H](O)[C@@H](O)[C@@H](O[C@H]7[C@H](O)[C@@H](O)[C@@H](O[C@H]8[C@H](O)[C@@H](O)[C@@H](O[C@H]1[C@H](O)[C@H]2O)O[C@@H]8CO)O[C@@H]7CO)O[C@@H]6CO)O[C@@H]5CO)O[C@@H]4CO)O[C@@H]3CO
- outcome [1]: inactive; no positive results

SMILES: C=CC(=C)Cl
- Potency (TD50_Rat_Note: TD50 is harmonic mean of more than one positive test, TargetSites_Rat_Female: kidney, mammary gland, oral cavity, thyroid gland): 12.5 mg/kg/day
- outcome [1]: inactive; no positive results

SMILES: Oc1cccc2cccnc12
- outcome [1]: inactive; no positive results

SMILES: O=C1CCCCC1
- outcome [1]: inactive; no positive results

SMILES: CC(C)(C)O
- Potency [4]: 64.6 mg/kg/day

SMILES: O=C(O)c1ccc(N=Nc2ccc(O)c(C(=O)O)c2)cc1
- outcome [1]: inactive; no positive results

SMILES: C=CC(=O)O
- outcome [1]: inactive; no positive results

SMILES: CCNC(=O)Nc1ncc([N+](=O)[O-])s1
- Potency (TargetSites_Rat_Female: mammary gland): 131 mg/kg/day

SMILES: C=CC#N
- Potency (TD50_Rat_Note: TD50 is harmonic mean of more than one positive test, greater than ten-fold variation among TD50 values for positive res, TargetSites_Rat_Female: ear Zymbals gland, mammary gland, nasal cavity, nervous system, oral cavity, small intestine, stomach): 16.9 mg/kg/day

SMILES: CCN(CC)N=O
- Potency (TD50_Rat_Note: TD50 is harmonic mean of more than one positive test, greater than ten-fold variation among TD50 values for positive res, TargetSites_Rat_Female: esophagus, liver, oral cavity, stomach): 0.0265 mg/kg/day

SMILES: Cc1cn([C@H]2C[C@H](N=[N+]=[N-])[C@@H](CO)O2)c(=O)[nH]c1=O
- Potency (TargetSites_Rat_Female: vagina): 11600 mg/kg/day

SMILES: N#CN=C(N)N
- outcome [1]: inactive; no positive results

SMILES: O=C(Nc1ccc2c(c1)Cc1ccccc1-2)C(F)(F)F
- Potency (TargetSites_Rat_Female: ear Zymbals gland, liver, mammary gland): 1.62 mg/kg/day

SMILES: FC(F)Cl
- outcome [1]: inactive; no positive results

SMILES: FC(Cl)C(F)(F)F (stereo not given)
- outcome [1]: inactive

SMILES: COC(=O)[C@H](Cc1ccccc1)NC(=O)[C@@H](N)CC(=O)O (H-Asp-Phe-OMe)
- outcome [1]: inactive; no positive results

SMILES: Nc1ccc(-c2ccccc2)cc1O
- outcome [1]: inactive

SMILES: O=P(O)(OCC(Br)CBr)OCC(Br)CBr (stereo not given)
- Potency (TD50_Rat_Note: TD50 is harmonic mean of more than one positive test, TargetSites_Rat_Female: esophagus, liver, small intestine, stomach): 32 mg/kg/day

SMILES: COP(=O)(OC)O/C(=C\Cl)c1cc(Cl)c(Cl)cc1Cl
- outcome (TD50_Rat_Note: no positive results, TargetSites_Rat_Female: no positive results- CPDB evaluation based on NCI Technical Report): no positive results

SMILES: S=C([S-])NCCNC(=S)[S-].[Mn+2]
- Potency (TargetSites_Rat_BothSexes: all tumor bearing animals): 157 mg/kg/day

SMILES: CCC1(c2ccccc2)C(=O)N=C(O)NC1=O (stereo not given)
- Potency [5]: 86 mg/kg/day

SMILES: Cc1cccc(C)c1NC(=O)CN1CCCC1=O
- outcome [1]: inactive; no positive results

SMILES: CC(=O)OC1CC(C)OC(C)O1 (stereo not given)
- outcome [1]: inactive; no positive results
- Potency: 716 mg/kg/day

SMILES: Cc1cccc(C)c1
- Potency (TD50_Rat_Note: TD50 is harmonic mean of more than one positive test, TargetSites_Rat_Female: oral cavity, Maltoni head cancers): 3110 mg/kg/day
- outcome [1]: inactive; no positive results

SMILES: CCSCC[C@H](N)C(=O)O
- Potency (TD50_Rat_Note: TD50 value is overestimated as upper 99% confidence limit from study with 100% tumor incidence but no lifetable, harmoni): 4.97 mg/kg/day

SMILES: NCCc1ccc(O)c(O)c1
- outcome [2]: inactive; no positive results

SMILES: C=CCN(CC(C)O)N=O (stereo not given)
- Potency (TargetSites_Rat_Female: esophagus, liver, nasal cavity): 0.877 mg/kg/day

SMILES: COC(=O)C1=C(C)NC(C)=C(C(=O)OCCc2ccc(N3CCN(C(c4ccccc4)c4ccccc4)CC3)cc2)C1c1cccc([N+](=O)[O-])c1 (stereo not given)
- outcome [1]: inactive; no positive results

SMILES: C=CC(=O)OCC
- Potency [6]: 119 mg/kg/day

SMILES: C=CC1CC=CCC1 (stereo not given)
- outcome (TD50_Rat_Note: only experiment is NCI/NTP bioassay inadequate, TargetSites_Rat_Female: NTP bioassay inadequate): ntp bioassay inadequate

SMILES: CCN(N=O)C(N)=O
- Potency (TD50_Rat_Note: TD50 is harmonic mean of more than one positive test, TargetSites_Rat_Female: nervous system, small intestine): 0.948 mg/kg/day

SMILES: C=CBr
- Potency (TD50_Rat_Note: TD50 is harmonic mean of more than one positive test, TargetSites_Rat_Female: ear Zymbals gland, liver, vascular system): 18.5 mg/kg/day

SMILES: C=CC(OC(C)=O)c1ccc2c(c1)OCO2 (stereo not given)
- Potency [3]: 25 mg/kg/day

SMILES: CCCCCCCCCCCCN(C)N=O
- Potency (TD50_Rat_Note: TD50 is harmonic mean of more than one positive test, harmonic mean of TD50 includes a value for upper 99% confidence li, TargetSites_Rat_Female: urinary bladder): 0.537 mg/kg/day

SMILES: CCCNC(=O)NS(=O)(=O)c1ccc(Cl)cc1
- outcome [1]: inactive; no positive results

SMILES: O=c1oc2c(O)c(O)cc3c(=O)oc4c(O)c(O)cc1c4c23
- outcome [1]: inactive

SMILES: OCc1ccco1
- Potency [4]: 9.6 mg/kg/day

SMILES: COc1ccc(C(=O)/C(Br)=C\C(=O)O)cc1
- Potency (TD50_Rat_Note: positive test results only by intraperitoneal or intravenous injection, TD50 is harmonic mean of more than one positive, TargetSites_Rat_Female: mammary gland): 2.77 mg/kg/day

SMILES: Cc1ncc([N+](=O)[O-])n1CCO
- Potency (TD50_Rat_Note: TD50 is harmonic mean of more than one positive test, TargetSites_Rat_Female: liver, mammary gland): 542 mg/kg/day

SMILES: CN(N=O)c1ccccc1
- Potency (TD50_Rat_Note: TD50 is harmonic mean of more than one positive test, harmonic mean of TD50 includes a value for upper 99% confidence li, TargetSites_Rat_Female: esophagus): 0.142 mg/kg/day

SMILES: ClCC(Cl)CCl
- Potency (TD50_Rat_Note: TD50 is harmonic mean of more than one positive test, TargetSites_Rat_Female: clitoral gland, ear Zymbals gland, mammary gland, oral cavity, stomach): 1.35 mg/kg/day

SMILES: CCCCCN(N=O)C(=O)OCC
- Potency (TargetSites_Rat_Female: esophagus, oral cavity): 1.01 mg/kg/day

SMILES: c1ccc(OCC2CO2)cc1 (stereo not given)
- Potency (TD50_Rat_Note: TD50 is harmonic mean of more than one positive test, TargetSites_Rat_Female: nasal cavity): 44 mg/kg/day

SMILES: Oc1cc2c(cc1O)[C@H]1c3ccc(O)c(O)c3OC[C@@]1(O)C2
- Potency (TargetSites_Rat_BothSexes: hematopoietic system): 1000 mg/kg/day

SMILES: OCC(O)CO
- outcome (TD50_Rat_Note: no positive results, TargetSites_Rat_BothSexes: no positive results): inactive

SMILES: CN(C)N
- outcome [1]: inactive; no positive results

SMILES: COc1c2occc2cc2ccc(=O)oc12
- Potency [4]: 32.4 mg/kg/day

SMILES: O=S1OCC2C(CO1)C1(Cl)C(Cl)=C(Cl)C2(Cl)C1(Cl)Cl (stereo not given)
- outcome [1]: inactive; no positive results

From PubChem BioAssay AID1208 (EPA DSSTox, 2008)
